“And” between values parts separate entries of the source, which are not always exact repeats. Equal values may be shown once.
Columns and labels:
Format in all cases: cell-based, human
TCCS cells [1] = experiment: DNA fiber assay (replication speed), TCCS cells; settings: erastin 0.5 μM, 16 h
Method: (§1) After 3 days, cells were analyzed by viability assays.
(§2) The DNA fiber assay was performed as described previously. Briefly, cells were sequentially treated with the medium containing 25 μM of CldU (Sigma-Aldrich, C6891) and then 250 μM of IdU (Sigma-Aldrich, I7125) for 20 min. After washing, cells were suspended in PBS (1000 cells/ μL). 2 μL of cell suspension was spotted on slides. After 5 min, 10 μL spread solution (200 mM Tris-HCl, pH 7.5, 50 mM EDTA, and 0.5% SDS) was spotted on the cell droplet and spread on slides. The slides were then fixed with methanol/acetic acid (3:1), followed by denaturation with 2.5 M HCl. After blocking with 5% BSA in TBST, slides were stained with rat anti-BrdU antibody (which detects CldU but not IdU, OBT0030, 1:2000, AbDSerotec) and mouse anti-BrdU antibody (which detects IdU but not CldU, 7580, 1:1000, BD Biosciences) at 4 °C for overnight. The next day, slides were washed with TBST, followed by staining with the secondary antibodies of goat anti-rat IgG conjugated with TRITC (Jackson Lab) and goat anti-mouse IgG conjugated with FITC. Images of DNA fibers were acquired using a microscope (Olympus). The lengths of red- and green-labeled fibers were determined by FluoView3.0 software (Olympus).

KOPM28 cells [2] = experiment: DNA fiber assay (replication speed), KOPM28 cells; settings: erastin 0.5 μM, 16 h
Method: as §1, §2

KOPM28 cells [3] = experiment: GSH/GSSG-Glo measurement, KOPM28 cells
Method: as §1
(§3) The GSH/GSSG-Glo™ Assay Kit (Promega, V6611) was used for luminescent-based measurement of cellular GSH and GSSG by Tecan Spark 10 microplate reader.

TCCS cells [4] = experiment: GSH/GSSG-Glo measurement, TCCS cells
Method: as §1, §3

Which results are given for CCOc1ccccc1-n1c(C(C)N2CCN(C(=O)COc3ccc(Cl)cc3)CC2)nc2ccccc2c1=O (stereo not drawn) [erastin]?
replication stress (DNA fiber) (TCCS cells [1]): induced replication stress; replication stress (DNA fiber) (KOPM28 cells [2]): induced replication stress; GSH% relative to K562 in 7e (Figure 7f) (KOPM28 cells [3]; KOPM28, Erastin treated, per replicate): 6.981% and 5.472% and 15%; GSH level (KOPM28 cells [3]; KOPM28 cells, erastin 0.5 μM, 16 h): drastically reduced; GSH level (TCCS cells [4]; TCCS cells, erastin 0.5 μM, 16 h): drastically reduced; GSH% relative to K562 in 7e (Figure 7f) (TCCS cells [4]; TCCS, Erastin treated, per replicate): 12.1585% and 8.793% and 13.8%
